Data taken from paper PMC6069808, “Biochemical and structural features of diverse bacterial glucuronoyl esterases facilitating recalcitrant biomass conversion” (Biotechnology for Biofuels, 2018).

Columns and labels:
Experiment in all cases: uronate dehydrogenase-coupled assay (K-URONIC), NADH formation
OtCE15B = tested on: T1, OtCE15B; assay type: biochemical, Opitutus terrae; conditions: pH 7.5, 25 °C, 50 mM sodium phosphate, ≤10% DMSO
T1 construct: recombinant in E. coli BL21(DE3), N-terminal His6 tag and TEV site (modified pET-28a); Tyr in place of the conserved Arg next to catalytic Ser
From the text: uronate dehydrogenase-coupled assay (K-URONIC), NADH formation on OtCE15B

OtCE15D = tested on: T2, OtCE15D; assay type: biochemical, Opitutus terrae; conditions: pH 7.5, 25 °C, 50 mM sodium phosphate, ≤10% DMSO
T2 construct: recombinant in E. coli Rosetta2(DE3), N-terminal His6 tag and TEV site (modified pET-28a)

OtCE15C = tested on: T3, OtCE15C; assay type: biochemical, Opitutus terrae; conditions: pH 7.5, 25 °C, 50 mM sodium phosphate, ≤10% DMSO
T3 construct: recombinant in E. coli BL21(DE3), N-terminal His6 tag and TEV site (modified pET-28a)

SlCE15B = molecular target: T4, SlCE15B (Spirosoma linguale, UniProt D2QTM2); assay type: biochemical; conditions: pH 6.5, 25 °C, 50 mM sodium phosphate, ≤10% DMSO; range covers four enzymes
T4 construct: gene Slin_6195; recombinant in E. coli with tig coexpression (pTf16), N-terminal His6 tag and TEV site (modified pET-28a)

SuCE15A = tested on: T5, SuCE15A; assay type: biochemical, Candidatus Solibacter usitatus; conditions: pH 7.5, 25 °C, 50 mM sodium phosphate, ≤10% DMSO
T5 construct: recombinant in E. coli BL21(DE3), N-terminal His6 tag and TEV site (modified pET-28a)

T4 sequence (D2QTM2 entry or part of it): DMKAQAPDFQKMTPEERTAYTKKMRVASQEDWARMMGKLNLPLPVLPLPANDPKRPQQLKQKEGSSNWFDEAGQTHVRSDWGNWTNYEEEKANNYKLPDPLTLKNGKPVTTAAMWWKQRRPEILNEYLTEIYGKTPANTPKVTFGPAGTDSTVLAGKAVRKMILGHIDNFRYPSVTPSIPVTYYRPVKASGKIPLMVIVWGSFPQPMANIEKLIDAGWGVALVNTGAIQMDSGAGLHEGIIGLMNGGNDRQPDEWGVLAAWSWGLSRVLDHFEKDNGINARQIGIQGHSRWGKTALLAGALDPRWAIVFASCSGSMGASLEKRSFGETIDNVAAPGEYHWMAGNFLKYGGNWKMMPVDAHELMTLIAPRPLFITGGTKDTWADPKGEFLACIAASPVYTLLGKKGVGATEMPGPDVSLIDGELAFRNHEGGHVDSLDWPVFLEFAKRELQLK

Structure (SMILES): O=C(OCc1ccccc1)[C@H]1OC(O)[C@H](O)[C@@H](O)[C@@H]1O (some centres unmarked) [BnzGlcA]
- Km (OtCE15B): 7940 ± 870 µM
- Km (OtCE15D; range covers four enzymes): 400 to 600 µM
- Km (OtCE15C; range covers four enzymes): 400 to 600 µM
- Km (SlCE15B): 400 to 600 µM
- Km (SuCE15A; range covers four enzymes): 400 to 600 µM

Structure (SMILES): C=CCOC(=O)[C@H]1OC(O)[C@H](O)[C@@H](O)[C@@H]1O (some centres unmarked) [AllylGlcA]
- Km (OtCE15D): 2080 ± 90 µM
- Km (OtCE15C): 2210 ± 120 µM
- Km (SuCE15A): 1240 ± 170 µM

Structure (SMILES): COC(=O)[C@H]1OC(O)[C@H](O)[C@@H](O)[C@@H]1O (some centres unmarked) [MeGlcA]
- Km (OtCE15D): 12300 ± 710 µM
- Km (OtCE15C): 4010 ± 55 µM
- Km (SuCE15A): 4310 ± 400 µM
